According to patent US6855828B1, “Detection of hypoxia” (The Trustees of the University of Pennsylvania, priority 1992, dated 2005):
Where “and” joins values, the source holds several entries; their conditions need not be identical. Identical values can stand only once. Each block holds one compound with its values, some of them ahead of it.

What was measured:
[1] = test system: existing antibodies (to EF5 and EF3); assay: Affinity of existing antibodies towards EF1; type: binding
[2] = Distribution of [^18F]-EF1 in murine organs and tissues; type: in vivo, mice; set-up: Distribution in murine tissues, Kidney / Distribution in murine tissues, Heart / Distribution in murine tissues, Muscle / Distribution in murine tissues, Liver / Distribution in murine tissues, Spleen: unit not given beside the values
Protocol: (§1) To measure the distribution of radioactive drug in various organs and tissues, the solution of [^18F]-EF1 in saline buffer was injected I/V into 2 male Buffalo rats. Animals was sacrificed and the samples of tissues were collected and weighted. The radioactivity of samples was measured by γ-counter and corrected for weight and the time of decay.
The distribution of radioactive drug in various murine organs and tissues was measured similarly to the previous example. [^18F]-EF1 was injected into 4 mice, which were sacrificed after 5 and 90 minutes and the radioactivity of tissues was measured.

[3] = Tissue distribution of [^18F]-EF1 in rats bearing tumors (γ-counter); type: in vivo; conditions: tumor-bearing rat, I/V
Source text: (§2) Q7 cells were obtained from the American Type Culture Collection (ATCC). They were maintained in exponential growth by transfers at 3.5 day intervals with standard culture conditions. Growth medium was Eagle's MEM supplemented with 15% fetal calf serum and standard penicillin and streptomycin.
(§3) All animal studies conformed to the regulations of the University of Pennsylvania Institutional Animal Care and Use Committee. Male Buffalo rats (Harlan Sprague Dawley, Indianapolis, Ind., USA) were used for all studies. Donor tumors were created by injecting 1 million Q7 cells subcutaneously into the thigh region. The average growth time to achieve a 1 cm diameter tumor was 21 days. Tumors of less than 2 g were used in the experiments.
as §1
In particular, note that the density of radioactive counts closely parallels the findings from the image analysis. Results from 2 animals, are shown. PET and immunohistochemical images from both animals were very similar (data not shown)

Morris 7777 hepatoma = assay: PET image of tumor-bearing rat treated with [^18F]-EF1; type: in vivo; conditions: 150 minutes post injection
Protocol: FIG. 4 illustrates a PET image of a tumor-bearing rat treated with 18-F-labeled EF1 (2-(2-nitro-1H-imidazol-1-yl)-N-3-monofluoropropyl) acetamide, 150 minutes post injection.
as §2, §3
It is believed that this is the first PET image of a rodent tumor where substantial image modifications to eliminate gut clearance effects have not been necessary.

SMILES: O=C(Cn1ccnc1[N+](=O)[O-])NCCCF [EF1, (2-(2-nitro-1H-imidazol-1-yl)-N-3-monofluoropropyl) acetamide]
Affinity of existing antibodies (to EF5 and EF3) towards compound [1]: only a modest affinity

Density of label in mouse-brain tissue compared with other organs ([2]; early times): substantially lower densities
Distribution in murine tissues, Blood ([2]; mouse, 5 minutes): 0.041 and 0.038
Distribution in murine tissues, Brain ([2]; mouse, 5 minutes): 0.004
Distribution in murine tissues, Cecum ([2]; mouse, 5 minutes, Cecum): 0.022 and 0.023
Distribution in murine tissues, Heart ([2]; mouse, 5 minutes): 0.041 and 0.052
Distribution in murine tissues, Intestine ([2]; mouse, 5 minutes): 0.037 and 0.039
Distribution in murine tissues, Kidney ([2]; mouse, 5 minutes): 0.072 and 0.044
Distribution in murine tissues, Liver ([2]; mouse, 5 minutes): 0.064 and 0.050
Distribution in murine tissues, Lung ([2]; mouse, 5 minutes): 0.052 and 0.046
Distribution in murine tissues, Muscle ([2]; mouse, 5 minutes): 0.038 and 0.031
Distribution in murine tissues, Spleen ([2]; mouse, 5 minutes): 0.034 and 0.035
Distribution in murine tissues, Stomach ([2]; mouse, 5 minutes): 0.013
Distribution in murine tissues, Tibia ([2]; mouse, 5 minutes): 0.045 and 0.042
Distribution in murine tissues, Urine ([2]; mouse, 5 minutes): 0.045
Distribution in murine tissues, Blood ([2]; mouse, 90 minutes): 0.005 and 0.007
Distribution in murine tissues, Brain ([2]; mouse, 90 minutes): 0.003 and 0.005
Distribution in murine tissues, Esophagus ([2]; mouse, 90 minutes, Esophagus): 0.012
Distribution in murine tissues, Heart ([2]; mouse, 90 minutes): 0.006 and 0.009
Distribution in murine tissues, Intestine ([2]; mouse, 90 minutes): 0.014 and 0.012
Distribution in murine tissues, Kidney ([2]; mouse, 90 minutes): 0.011 and 0.015
Distribution in murine tissues, Liver ([2]; mouse, 90 minutes): 0.016 and 0.020
Distribution in murine tissues, Lung ([2]; mouse, 90 minutes): 0.007 and 0.005
Distribution in murine tissues, Muscle ([2]; mouse, 90 minutes): 0.005 and 0.009
Distribution in murine tissues, Spleen ([2]; mouse, 90 minutes): 0.005 and 0.007
Distribution in murine tissues, Stomach ([2]; mouse, 90 minutes): 0.007 and 0.009
Distribution in murine tissues, Tail ([2]; mouse, 90 minutes, Tail): 0.071 and 0.051
Distribution in murine tissues, Tibia ([2]; mouse, 90 minutes): 0.079 and 0.064
Distribution in murine tissues, Urine ([2]; mouse, 90 minutes): 0.595 and 0.786
Tissue distribution, Brain ([3]; 3 hrs, Brain): 0.13 % dose/gram and 0.11 % dose/gram
Tissue distribution, Kidney ([3]; 3 hrs, Kidney): 0.54 % dose/gram and 0.29 % dose/gram
Tissue distribution, Liver ([3]; 3 hrs, Liver): 0.25 % dose/gram and 0.21 % dose/gram
Tissue distribution, Muscle ([3]; 3 hrs): 0.17 % dose/gram and 0.13 % dose/gram
Tissue distribution, Spleen ([3]; 3 hrs, Spleen): 0.17 % dose/gram and 0.13 % dose/gram
Tissue distribution, Tumor ([3]; 3 hrs): 0.34 % dose/gram and 0.28 % dose/gram
Tissue distribution, Muscle ([3]; 4 hrs): 0.23 % dose/gram and 0.13 % dose/gram
Tissue distribution, Tumor ([3]; 4 hrs): 0.64 % dose/gram and 0.44 % dose/gram
SMILES: O=C(Cn1ccnc1[N+](=O)[O-])NCCCF [[^18F]-EF1, (2-(2-nitro-1H-imidazol-1-yl)-N-3-monofluoropropyl) acetamide]
Visibility of tumor in PET image (Morris 7777 hepatoma): clearly visible
